A word on the logP: it is the decadic logarithm of the partition coefficient of the neutral form, usually between octanol and water. Read a high logP as a more lipophilic compound.

Structures are written as SMILES.

The compound `C=C1C(CCl)(CCl)C2(Cl)C(Cl)C(Cl)C1(Cl)C2(Cl)Cl` (mixture of isomers) returned a logP of 5.5.
The value for `COc1cc(Cl)c(OC)cc1Cl` was 3.46; that for `CC(C)Oc1cc(-n2nc(C(C)(C)C)oc2=O)c(Cl)cc1Cl` was 4.09.
With `O=C(O)COc1nc(Cl)c(Cl)cc1Cl` the figure was 2.09.
The value for `COc1c(Cl)ccc(Cl)c1C(=O)O` was 3.01; that for `Cc1nc(C)c(Cl)c(O)c1Cl` was 0.5; that for `COC(=O)C(C)N(C(=O)c1ccccc1)c1ccc(F)c(Cl)c1` (racemic) was 3.48.
In turn, `CCOC(=O)C(C)N(C(=O)c1ccccc1)c1ccc(Cl)c(Cl)c1` (racemic) gave a logP of 4.57.
For `CC(C)OC(=O)[C@H](C)N(C(=O)c1ccccc1)c1ccc(F)c(Cl)c1` (racemic), the logP was found to be 4.41.
The value for `Clc1ccc(-c2cc(Cl)ccc2Cl)cc1` was 5.56; that for `CCN(CC)C(=O)C(Cl)=C(C)OP(=O)(OC)OC` was 1.34.
With `Brc1c(Br)c(Br)c(Br)c(Br)c1Br` the figure was 6.51.
With `COP(=S)(OC)Oc1ccc(S(=O)(=O)N(C)C)cc1` the figure was 2.28; with `ClC=C(c1ccc(Cl)cc1)c1ccc(Cl)cc1`, 5.27.

These data come from the SangsterLogP compilation.
